Entries after “also recorded” stand apart in the source; their conditions may differ.
Key:
[1] = test system: MLLr acute myeloid leukemia (AML); details: cited from earlier work
MLL rearranged cells = details: cited from earlier work
MLL-AF9 targets = assay: RNA sequencing of MLL-AF9 targets (heatmap, GSEA) in MOLM13 cells; type: cell-based; details: EPZ5676 1.25 μM 4 days, S31 1 μM 6-10 hr, FIG. 11A
Procedure: MOLM13 cells were primed with 1.25 μM of EPZ5676 or DMSO for 4 days. At day 5, additional S31 (1 μM) or DMSO was added for another 6-10 hr. Cells were harvested and subjected to RNA isolation. Isolated RNA was sent to Novogene (USA) for RNA sequencing. Expression values of MLL-AF9 targets from each treatment group were plotted in heatmap (Morpheus) (FIG. 11A). GSEA analysis was performed by GSEA software 4.1.0 (Broad Institute) (FIG. 11B).
The molecular interdependency between DOT1L inhibition and SMARCA4/2 inactivation was explored using RNA-seq in MOLM13 cells treated with DMSO. S31. EPZ5676 and S31+EPZ5676. Persistent expression of MLL fusion targets maintained the leukemic transformation as a stem cell-like state. […] To define a detailed regulatory pattern of the effects of SMARCA4/2 and DOT1L on these genes, the RNA-seq results were plotted in a heatmap and identified one subset of genes are of particular interest. […] However, the combination of the two induced significant reduction of genes such as MYB and FLT3, which are critical for MLLr leukemia proliferation. S31 sensitized such MLL-AF9) targets to EPZ5676. This was confirmed via Q-PCR.

SMARCA2 [2] = biological target: T1, SMARCA2 (Homo sapiens, UniProt P51531); assay: DSF assay (Protein Thermal Shift Dye Kit), SMARCA2 binding; details: 30 min incubation, indicated ratios, FIG. 1A
Procedure: (§1) Recombinant SMARCA4 and SMARCA2 proteins were incubated with S31 at indicated ratios. After 30 min of incubation, DSF assay was performed using Protein Thermal Shift™ Dye Kit (ThermoFisher™) according to manufacture instructions (FIG. 1A).

SMARCA4 [3] = biological target: T2, SMARCA4 (Homo sapiens, UniProt P51532); assay: SMARCA4 degradation by Western Blotting in MOLM13 cells; type: cell-based; parameters: endogenous in cells; host or cells: MOLM13 WT and CRBN KO cells; details: MOLM13 WT and CRBN KO cells, 1 μM, indicated time points, FIG. 2
Procedure: (§2) MOLM13 WT and CRBN KO cells were treated with 1 μM of S31 at indicated time points. Cell lysates were harvested, and proteins were extracted using RIPA buffer.

His-CRBN = His-CRBN (Homo sapiens, UniProt Q96SW2); assay: CRBN binding, biotin-pomalidomide probe with streptavidin donor and nickel chelate acceptor beads; details: 50 nM His-CRBN, 1 hr, FIG. 1B
Procedure: 50 nM of His-CRBN was incubated with biotinylated probe (biotin-pomalidomide), streptavidin donor beads (PerkinElmer®), nickel chelate acceptor beads (PerkinElmer®) and compounds (S31, PFI3 or pomalidomide at indicated concentrations) for 1 hr. After incubation, […] was read according to manufacture instructions (FIG. 1B).

SMARCA4 [4] = biological target: T2, SMARCA4; assay: DSF assay (Protein Thermal Shift Dye Kit), SMARCA4 binding; details: 30 min incubation, indicated ratios, FIG. 1A
Procedure: as §1

cleaved PARP = assay: Cleaved PARP expression (apoptosis); type: cell-based; details: after 6 hours of treatment
Procedure: as §2
Chemical inhibition of targeted proteins offered the opportunity to understand the function and therapeutic potential of the targets with temporal control. There are several small molecule inhibitors that have been reported to target SMARCA2/4. […] Therefore, PROTACs, bridging small molecules that recruit the target protein into proximity with the E3 ligase system to initiate proteasomal degradation of targeted proteins inside the cells, were developed to target SMARCA2/4. The strategy has recently been described and utilized for the depletion of multiple targets including BRD4, FKBP12, ERR, RIPK2 and BRD9. Compound (1) (S31) is a molecule that contains phthalimide (thalidomide, lenalidomide and pomalidomide, also known as IMiDs®), a CRBN binder, and a SMARCA4/2 binder that are linked via an alkyl linker. The PROTAC dimerized targeted proteins and CRBN, and induced polyubiquitylation followed by proteasomal degradation of SMARCA4/2.

SMARCA2 [5] = biological target: T1, SMARCA2; assay: SMARCA2 degradation by Western Blotting in MOLM13 cells; type: cell-based; parameters: endogenous in cells; host or cells: MOLM13 WT and CRBN KO cells; details: MOLM13 WT and CRBN KO cells, 1 μM, indicated time points, FIG. 2
Procedure: as §2

[6] = test system: panel of leukemia cell lines; assay: Growth inhibition in a panel of leukemia cell lines (ATPlite); type: cell-based; details: 72 hr, FIG. 3
Procedure: S31 was treated in a panel of leukemia cell lines with 10 doses ranging from 10 μM to 1 nM. After 72 hr of treatment, growth inhibition was determined by ATPlite™ (PerkinElmer®). IC50 was calculated by GraphPad Prism® 7 (FIG. 3).

T1 sequence (P51531 whole entry): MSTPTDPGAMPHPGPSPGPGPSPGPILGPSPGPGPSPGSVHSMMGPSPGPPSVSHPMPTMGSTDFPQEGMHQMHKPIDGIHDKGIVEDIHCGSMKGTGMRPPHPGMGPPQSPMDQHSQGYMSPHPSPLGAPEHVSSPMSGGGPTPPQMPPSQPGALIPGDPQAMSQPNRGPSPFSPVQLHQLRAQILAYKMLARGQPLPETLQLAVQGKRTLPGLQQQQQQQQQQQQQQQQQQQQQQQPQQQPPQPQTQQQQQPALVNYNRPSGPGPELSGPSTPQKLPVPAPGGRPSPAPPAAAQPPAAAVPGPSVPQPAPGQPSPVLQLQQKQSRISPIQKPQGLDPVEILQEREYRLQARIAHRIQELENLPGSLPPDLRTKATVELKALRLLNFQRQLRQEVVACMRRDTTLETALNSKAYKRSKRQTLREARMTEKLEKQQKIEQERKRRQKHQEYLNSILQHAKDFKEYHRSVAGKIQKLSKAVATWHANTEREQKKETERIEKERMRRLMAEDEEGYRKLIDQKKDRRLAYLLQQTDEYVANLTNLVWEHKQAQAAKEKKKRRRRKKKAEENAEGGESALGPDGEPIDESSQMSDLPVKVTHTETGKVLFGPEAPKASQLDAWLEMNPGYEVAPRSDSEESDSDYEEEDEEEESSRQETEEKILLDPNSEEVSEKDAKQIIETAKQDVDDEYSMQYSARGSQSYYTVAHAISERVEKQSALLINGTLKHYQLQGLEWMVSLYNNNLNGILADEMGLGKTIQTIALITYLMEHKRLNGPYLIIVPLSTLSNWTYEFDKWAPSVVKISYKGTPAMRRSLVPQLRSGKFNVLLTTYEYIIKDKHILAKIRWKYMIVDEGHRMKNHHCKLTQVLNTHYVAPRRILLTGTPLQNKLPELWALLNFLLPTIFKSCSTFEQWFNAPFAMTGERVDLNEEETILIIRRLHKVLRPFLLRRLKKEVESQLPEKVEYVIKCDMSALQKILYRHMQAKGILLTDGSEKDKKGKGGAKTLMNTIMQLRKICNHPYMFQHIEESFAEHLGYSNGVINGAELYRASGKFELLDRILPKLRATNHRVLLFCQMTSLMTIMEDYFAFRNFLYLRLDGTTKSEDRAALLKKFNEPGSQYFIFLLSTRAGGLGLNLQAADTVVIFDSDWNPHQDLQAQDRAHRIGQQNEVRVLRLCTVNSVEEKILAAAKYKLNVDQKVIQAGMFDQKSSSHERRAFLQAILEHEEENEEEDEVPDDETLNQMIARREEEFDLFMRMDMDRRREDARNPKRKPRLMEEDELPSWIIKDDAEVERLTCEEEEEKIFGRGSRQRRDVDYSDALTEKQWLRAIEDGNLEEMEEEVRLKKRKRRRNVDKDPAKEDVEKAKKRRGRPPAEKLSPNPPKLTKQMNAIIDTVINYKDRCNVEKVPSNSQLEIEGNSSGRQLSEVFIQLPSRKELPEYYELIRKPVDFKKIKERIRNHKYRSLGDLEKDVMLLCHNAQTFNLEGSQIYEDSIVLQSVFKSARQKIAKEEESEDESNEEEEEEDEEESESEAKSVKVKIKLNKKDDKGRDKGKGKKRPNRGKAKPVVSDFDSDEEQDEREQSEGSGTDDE
T2 sequence (P51532 whole entry): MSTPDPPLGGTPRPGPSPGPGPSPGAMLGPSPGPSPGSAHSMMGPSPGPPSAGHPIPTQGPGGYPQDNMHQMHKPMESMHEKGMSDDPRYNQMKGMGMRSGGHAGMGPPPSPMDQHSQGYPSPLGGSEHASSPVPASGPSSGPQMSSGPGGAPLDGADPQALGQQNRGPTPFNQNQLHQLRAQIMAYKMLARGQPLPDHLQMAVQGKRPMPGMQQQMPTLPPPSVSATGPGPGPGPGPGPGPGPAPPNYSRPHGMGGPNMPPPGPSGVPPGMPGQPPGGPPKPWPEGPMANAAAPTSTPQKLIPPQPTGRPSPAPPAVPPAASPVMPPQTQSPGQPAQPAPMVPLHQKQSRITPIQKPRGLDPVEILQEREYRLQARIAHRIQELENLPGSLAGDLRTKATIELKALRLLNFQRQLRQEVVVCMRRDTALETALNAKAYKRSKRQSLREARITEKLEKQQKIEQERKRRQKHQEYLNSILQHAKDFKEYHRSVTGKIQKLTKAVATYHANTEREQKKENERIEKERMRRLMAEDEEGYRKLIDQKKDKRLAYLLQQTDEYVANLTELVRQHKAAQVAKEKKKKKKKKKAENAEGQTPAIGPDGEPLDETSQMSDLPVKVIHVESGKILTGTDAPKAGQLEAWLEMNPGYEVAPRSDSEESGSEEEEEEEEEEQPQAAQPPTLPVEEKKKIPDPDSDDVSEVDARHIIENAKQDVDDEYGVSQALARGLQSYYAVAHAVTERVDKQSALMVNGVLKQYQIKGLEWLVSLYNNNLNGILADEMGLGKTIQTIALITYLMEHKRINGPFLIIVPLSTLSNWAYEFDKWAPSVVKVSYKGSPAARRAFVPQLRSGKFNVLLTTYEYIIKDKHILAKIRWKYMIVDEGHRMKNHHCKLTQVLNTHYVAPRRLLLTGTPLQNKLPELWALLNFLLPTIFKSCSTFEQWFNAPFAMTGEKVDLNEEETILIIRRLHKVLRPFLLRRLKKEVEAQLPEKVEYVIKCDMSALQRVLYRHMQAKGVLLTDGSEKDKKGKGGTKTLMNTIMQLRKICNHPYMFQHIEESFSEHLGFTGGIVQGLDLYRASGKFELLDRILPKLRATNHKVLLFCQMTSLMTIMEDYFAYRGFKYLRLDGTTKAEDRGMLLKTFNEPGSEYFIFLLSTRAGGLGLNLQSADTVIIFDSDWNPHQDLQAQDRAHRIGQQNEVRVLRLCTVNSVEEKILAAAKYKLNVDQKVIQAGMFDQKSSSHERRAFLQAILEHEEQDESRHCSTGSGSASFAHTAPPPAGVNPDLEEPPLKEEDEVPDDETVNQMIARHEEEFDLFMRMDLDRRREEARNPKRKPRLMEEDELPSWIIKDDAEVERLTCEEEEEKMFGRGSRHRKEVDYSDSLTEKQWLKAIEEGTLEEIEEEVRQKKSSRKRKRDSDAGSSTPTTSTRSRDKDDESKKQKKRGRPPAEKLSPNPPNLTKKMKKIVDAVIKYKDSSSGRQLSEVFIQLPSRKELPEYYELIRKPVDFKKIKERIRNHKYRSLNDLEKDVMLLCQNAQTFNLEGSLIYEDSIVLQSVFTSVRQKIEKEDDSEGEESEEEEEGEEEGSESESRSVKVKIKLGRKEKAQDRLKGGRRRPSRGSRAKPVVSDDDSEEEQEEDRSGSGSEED
His-CRBN, sequence (Q96SW2 whole entry): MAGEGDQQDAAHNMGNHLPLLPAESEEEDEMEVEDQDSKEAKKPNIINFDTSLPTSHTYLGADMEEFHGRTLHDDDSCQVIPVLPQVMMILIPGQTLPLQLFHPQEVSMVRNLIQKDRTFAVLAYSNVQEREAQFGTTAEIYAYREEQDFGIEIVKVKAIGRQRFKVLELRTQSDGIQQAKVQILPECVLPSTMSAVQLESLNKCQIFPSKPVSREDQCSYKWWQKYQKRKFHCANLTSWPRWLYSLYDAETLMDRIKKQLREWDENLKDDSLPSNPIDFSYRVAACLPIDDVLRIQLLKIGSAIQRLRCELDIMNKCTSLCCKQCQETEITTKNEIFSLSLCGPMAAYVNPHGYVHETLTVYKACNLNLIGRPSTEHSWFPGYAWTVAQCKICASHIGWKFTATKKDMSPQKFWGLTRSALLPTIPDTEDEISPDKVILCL

| SMILES | clinical response ([1]; monotherapy) | side effect profile ([1]; treatment of MLLr AML) | anti-proliferative effects (MLL rearranged cells) | expression of MLL-AF9 target genes (subset such as MYB and FLT3), RNA-seq heatmap (MLL-AF9 targets) | binding to SMARCA2 (SMARCA2 [2]) | SMARCA4 degradation (SMARCA4 [3]) | binding to CRBN (His-CRBN) | binding to SMARCA4 (SMARCA4 [4]) | cleaved PARP expression, indicating apoptosis (cleaved PARP) | SMARCA2 degradation (SMARCA2 [5]) | IC50 of cell growth ([6]; 10 doses from 10 μM to 1 nM) | cell growth inhibition / cytotoxicity [6] |
| --- | --- | --- | --- | --- | --- | --- | --- | --- | --- | --- | --- | --- |
| CC(C)N(C[C@H]1OC(n2cnc3c(N)ncnc32)[C@H](O)[C@@H]1O)C1CC(CCc2nc3cc(C(C)(C)C)ccc3[nH]2)C1 (stereo partly drawn) [EPZ5676, (2R,3R,4S,5R)-2-(6-amino-9H-purin-9-yl)-5-((((1s,3R)-3-(2-(5-(tert-butyl)-1H-benzo[d]imidazol-2-yl)ethyl)cyclobutyl)(isopropyl)amino)methyl)tetrahydrofuran-3,4-diol] | low effective responses and subsequent relapses | promising side effect profile | remarkably selective anti-proliferative effects | could not—or just slightly—affect the gene expression | – | – | – | – | – | – | – | – |
| O=C1CCC(N2C(=O)c3ccc(NCCCCCCCCOCCc4cccc(N5C[C@H]6C[C@@H]5CN6/C=C/C(=O)c5ccccc5O)c4)cc3C2=O)C(=O)N1 (stereo partly drawn) [S31, 2-(2,6-dioxopiperidin-3-yl)-5-((8-(3-((1R,4R)-5-((E)-3-(2-hydroxyphenyl)-3-oxoprop-1-en-1-yl)-2,5-diazabicyclo[2.2.1]heptan-2-yl)phenethoxy)octyl)amino)isoindoline-1,3-dione] | – | – | – | could not—or just slightly—affect the gene expression; also recorded: sensitizes MLL-AF9 targets to EPZ5676 | binds | degraded; also recorded: degradation was observed | binds | binds | cleaved PARP expression abundance was observed | degraded; also recorded: degradation was observed | low nanomolar range | profound inhibition; also recorded: induces cytotoxicity |

Source: patent publication US20240335438A1, “TARGETING DOT1L AND SMARCA4/2 FOR THE TREATMENT OF MLLR LEUKEMIA” (DANA-FARBER CANCER INSTITUTE, INC., priority 2021, published 2024)
